These results are taken from US20240300980A1, “HETEROCYCLIC COMPOUNDS AS KRAS INHIBITOR, AND PREPARATION THEREFOR AND USE THEREOF IN TREATMENT” (SHANGHAI KECHOW PHARMA, INC., priority 2021, published 2024).

In the first experiment the test system is AGS cells (KRAS^G12D). The experiment can be described thus: Detection of cell proliferation in vitro by MTT/MTS method (cell activity experiment). The settings on record: AGS cells; MTT/MTS; 3 days of drug treatment; read-out: AGS IC50. The experiment is classed as cell-based. An outline of the steps: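 After 3-day compound exposure (final DMSO 0.5%), viability of AGS (KRAS G12D) cells, plated 1000/well one day before dosing, was measured at 490 nm following 4 h MTT or MTS incubation. IC50 was fitted from dose–effect curves relative to DMSO-treated wells.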
A general note: Formazan colour is commonly taken as a measure of viable cells.
A word on the IC50: it is the concentration needed to halve the response being measured. Take `C#Cc1c(F)ccc2cc(O)cc(-c3cc4nc(OC[C@@]56CCCN5C[C@H](F)C6)nc(N5C[C@H]6CC[C@@H](C5)N6)c4c4occc34)c12` [Example 384, 4-(9-((2R,5S)-3,8-diazabicyclo[3.2.1]octan-3-yl)-7-(((2R,7aS)-2-fluorotetrahydro-1H-pyrrolizin-7a(5H)-yl)methoxy)furo[2,3-f]quinazolin-4-yl)-5-ethynyl-6-fluoronaphthalen-2-ol]: the IC50 is 212 nM.

The experiment is the same for the next values; noted with them: Homo sapiens, AGS, 72 h, AGS cells; MTT/MTS; 3 days of drug treatment; read-out: AGS IC50.
Regarding `CC1CCCc2cc(O)cc(-c3c4c(c5c(N6C[C@H]7CC[C@@H](C6)N7)nc(OC[C@@]67CCCN6C[C@H](F)C7)nc5c3F)CCC4)c21` (stereo partly drawn) [Example 382, 4-(1-((1R,5S)-3,8-diazabicyclo[3.2.1]octan-3-yl)-5-fluoro-3-(((2R,7aS)-2-fluorotetrahydro-1H-pyrrolizin-7a(5H)-yl)methoxy)-8,9-dihydro-7H-cyclopenta[f]quinazolin-6-yl)-5-methyl-5,6,7,8-tetrahydronaphthalen-2-ol], the IC50 was found to be 45 nM.

As to `CCC1CCCc2cc(O)cc(-c3c4c(c5c(N6C[C@H]7CC[C@@H](C6)N7)nc(OC[C@@]67CCCN6C[C@H](F)C7)nc5c3F)CCC4)c21` (stereo partly drawn) [Example 383, 4-(1-((1R,5S)-3,8-diazabicyclo[3.2.1]octan-3-yl)-5-fluoro-3-(((2R,7aS)-2-fluorotetrahydro-1H-pyrrolizin-7a(5H)-yl)methoxy)-8,9-dihydro-7H-cyclopenta[f]quinazolin-6-yl)-5-ethyl-5,6,7,8-tetrahydronaphthalen-2-ol], the concentration for half-maximal inhibition (IC50) turned out to be 50 nM.

For `CC1CCc2cc(O)cc(-c3cc4nc(OC[C@@]56CCCN5C[C@H](F)C6)nc(N5C[C@H]6CC[C@@H](C5)N6)c4c4occc34)c21` (stereo partly drawn) [Example 385, 7-(9-((1R,5S)-3,8-diazabicyclo[3.2.1]octan-3-yl)-7-(((2R,7aS)-2-fluorotetrahydro-1H-pyrrolizin-7a(5H)-yl)methoxy)furo[2,3-f]quinazolin-4-yl)-1-methyl-2,3-dihydro-1H-inden-5-ol], the IC50 is 459 nM.

In the case of `CCC1CCc2cc(O)cc(-c3cc4nc(OC[C@@]56CCCN5C[C@H](F)C6)nc(N5C[C@H]6CC[C@@H](C5)N6)c4c4occc34)c21` (stereo partly drawn) [Example 386, 7-(9-((1R,5S)-3,8-diazabicyclo[3.2.1]octan-3-yl)-7-(((2R,7aS)-2-fluorotetrahydro-1H-pyrrolizin-7a(5H)-yl)methoxy)furo[2,3-f]quinazolin-4-yl)-1-ethyl-2,3-dihydro-1H-inden-5-ol], the 50% inhibitory concentration (IC50) turned out to be 508 nM.

`CC1CCCc2cc(O)cc(-c3cc4nc(OC[C@@]56CCCN5C[C@H](F)C6)nc(N5C[C@H]6CC[C@@H](C5)N6)c4c4occc34)c21` (stereo partly drawn) [Example 387, 4-(9-((1R,5S)-3,8-diazabicyclo[3.2.1]octan-3-yl)-7-(((2R,7aS)-2-fluorotetrahydro-1H-pyrrolizin-7a(5H)-yl)methoxy)furo[2,3-f]quinazolin-4-yl)-5-methyl-5,6,7,8-tetrahydronaphthalen-2-ol]: the IC50 stood at 481 nM.

Turning to `CCC1CCCc2cc(O)cc(-c3cc4nc(OC[C@@]56CCCN5C[C@H](F)C6)nc(N5C[C@H]6CC[C@@H](C5)N6)c4c4occc34)c21` (stereo partly drawn) [Example 388, 4-(9-((1R,5S)-3,8-diazabicyclo[3.2.1]octan-3-yl)-7-(((2R,7aS)-2-fluorotetrahydro-1H-pyrrolizin-7a(5H)-yl)methoxy)furo[2,3-f]quinazolin-4-yl)-5-ethyl-5,6,7,8-tetrahydronaphthalen-2-ol], the IC50 stood at 493 nM.

Take `Oc1cc(-c2c3c(c4c(N5C[C@H]6CC[C@@H](C5)N6)nc(OC[C@@]56CCCN5C[C@H](F)C6)nc4c2F)OCO3)c2ccccc2c1` [Example 389, 4-(9-((1R,5S)-3,8-diazabicyclo[3.2.1]octan-3-yl)-5-fluoro-7-(((2R,7aS)-2-fluorotetrahydro-1H-pyrrolizin-7a(5H)-yl)methoxy)-[1,3]dioxolo[4,5-f]quinazolin-4-yl)naphthalen-2-ol]: the half-inhibitory concentration (IC50) turned out to be 180 nM.

As for `Oc1cc2c(c(-c3c4c(c5c(N6C[C@H]7CC[C@@H](C6)N7)nc(OC[C@@]67CCCN6C[C@H](F)C7)nc5c3F)OCO4)c1)CCCC2` [Example 390, 4-(9-((1R,5S)-3,8-diazabicyclo[3.2.1]octan-3-yl)-5-fluoro-7-(((2R,7aS)-2-fluorotetrahydro-1H-pyrrolizin-7a(5H)-yl)methoxy)-[1,3]dioxolo[4,5-f]quinazolin-4-yl)-5,6,7,8-tetrahydronaphthalen-2-ol], the IC50 amounted to 150 nM.

`CC1CCCc2cc(O)cc(-c3c4c(c5c(N6C[C@H]7CC[C@@H](C6)N7)nc(OC[C@@]67CCCN6C[C@H](F)C7)nc5c3F)OCO4)c21` (stereo partly drawn) [Example 391, 4-(9-((1R,5S)-3,8-diazabicyclo[3.2.1]octan-3-yl)-5-fluoro-7-(((2R,7aS)-2-fluorotetrahydro-1H-pyrrolizin-7a(5H)-yl)methoxy)-[1,3]dioxolo[4,5-f]quinazolin-4-yl)-5-methyl-5,6,7,8-tetrahydronaphthalen-2-ol]: the IC50 came out at 100 nM.

Turning to `CC1OCCc2cc(O)cc(-c3c4c(c5c(N6C[C@H]7CC[C@@H](C6)N7)nc(OC[C@@]67CCCN6C[C@H](F)C7)nc5c3F)OCO4)c21` (stereo partly drawn) [Example 392, 8-(9-((1R,5S)-3,8-diazabicyclo[3.2.1]octan-3-yl)-5-fluoro-7-(((2R,7aS)-2-fluorotetrahydro-1H-pyrrolizin-7a(5H)-yl)methoxy)-[1,3]dioxolo[4,5-f]quinazolin-4-yl)-1-methylisochroman-6-ol], the IC50 stood at 110 nM.

As for `C#Cc1c(F)ccc2cc(O)cc(-c3c4c(c5c(N6C[C@H]7CC[C@@H](C6)N7)nc(OC[C@@]67CCCN6C[C@H](F)C7)nc5c3F)OCO4)c12` [Example 393, 4-(9-((1R,5S)-3,8-diazabicyclo[3.2.1]octan-3-yl)-5-fluoro-7-(((2R,7aS)-2-fluorotetrahydro-1H-pyrrolizin-7a(5H)-yl)methoxy)-[1,3]dioxolo[4,5-f]quinazolin-4-yl)-5-ethynyl-6-fluoronaphthalen-2-ol], the IC50 was found to be 70 nM.

Consider `CCC1CCc2cc(O)cc(-c3c4c(c5c(N6C[C@H]7CC[C@@H](C6)N7)nc(OC[C@@]67CCCN6C[C@H](F)C7)nc5c3F)OCO4)c21` (stereo partly drawn) [Example 394, 7-(9-((1R,5S)-3,8-diazabicyclo[3.2.1]octan-3-yl)-5-fluoro-7-(((2R,7aS)-2-fluorotetrahydro-1H-pyrrolizin-7a(5H)-yl)methoxy)-[1,3]dioxolo[4,5-f]quinazolin-4-yl)-1-ethyl-2,3-dihydro-1H-inden-5-ol], for which the IC50 stood at 75 nM.

As for `CCc1ccc2cc(O)cc(-c3c4c(c5c(N6C[C@H]7CC[C@@H](C6)N7)nc(OC[C@@]67CCCN6C[C@H](F)C7)nc5c3F)OCO4)n12` [Example 397, 5-(9-((1R,5S)-3,8-diazabicyclo[3.2.1]octan-3-yl)-5-fluoro-7-(((2R,7aS)-2-fluorotetrahydro-1H-pyrrolizin-7a(5H)-yl)methoxy)-[1,3]dioxolo[4,5-f]quinazolin-4-yl)-3-ethylindolizin-7-ol], the IC50 stood at 70 nM.

Regarding `C#Cc1c(F)ccc2cc(O)cc(-c3c(F)c4nc(OC[C@@]56CCCN5C[C@H](F)C6)nc(N5C[C@H]6CC[C@@H](C5)N6)c4c4cncn34)c12` [Example 398, 4-(1-((1R,5S)-3,8-diazabicyclo[3.2.1]octan-3-yl)-5-fluoro-3-(((2R,7aS)-2-fluorotetrahydro-1H-pyrrolizin-7a(5H)-yl)methoxy)imidazo[1′,5′:1,2]pyrido[4,3-d]pyrimidin-6-yl)-5-ethynyl-6-fluoronaphthalen-2-ol], the IC50 was determined as 50 nM.

For the molecule `C#Cc1c(F)ccc2cc(O)cc(-c3c(F)c4nc(OC[C@@]56CCCN5C[C@H](F)C6)nc(N5C[C@H]6CC[C@@H](C5)N6)c4c4nccn34)c12` [Example 399, 4-(10-((1R,5S)-3,8-diazabicyclo[3.2.1]octan-3-yl)-6-fluoro-8-(((2R,7aS)-2-fluorotetrahydro-1H-pyrrolizin-7a(5H)-yl)methoxy)imidazo[1′,2′:1,2]pyrido[4,3-d]pyrimidin-5-yl)-5-ethynyl-6-fluoronaphthalen-2-ol], the concentration for half-maximal inhibition (IC50) is 65 nM.

As for `C#Cc1c(F)ccc2cc(O)cc(-c3cc4nc(OC[C@@]56CCCN5C[C@H](F)C6)nc(N5C[C@H]6CC[C@@H](C5)N6)c4c4ncn(C)c34)c12` [Example 400, 4-(9-((1R,5S)-3,8-diazabicyclo[3.2.1]octan-3-yl)-7-(((2R,7aS)-2-fluorotetrahydro-1H-pyrrolizin-7a(5H)-yl)methoxy)-3-methyl-3H-imidazo[4,5-f]quinazolin-4-yl)-5-ethynyl-6-fluoronaphthalen-2-ol], the concentration for half-maximal inhibition (IC50) was greater than 2500 nM.

On to `Oc1cc(C2=C(F)c3nc(OC[C@@]45CCCN4C[C@H](F)C5)nc(N4C[C@H]5CC[C@@H](C4)N5)c3C3=NCCN32)c2ccccc2c1` [Example 401, 4-(10-((1R,5S)-3,8-diazabicyclo[3.2.1]octan-3-yl)-6-fluoro-8-(((2R,7aS)-2-fluorotetrahydro-1H-pyrrolizin-7a(5H)-yl)methoxy)-2,3-dihydroimidazo[1′,2′:1,2]pyrido[4,3-d]pyrimidin-5-yl)naphthalen-2-ol], for which the IC50 turned out to be 100 nM.

In the case of `C#Cc1c(F)ccc2cc(O)cc(C3=C(F)c4nc(OC[C@@]56CCCN5C[C@H](F)C6)nc(N5C[C@H]6CC[C@@H](C5)N6)c4C4=NCCN43)c12` [Example 402, 4-(10-((1R,5S)-3,8-diazabicyclo[3.2.1]octan-3-yl)-6-fluoro-8-(((2R,7aS)-2-fluorotetrahydro-1H-pyrrolizin-7a(5H)-yl)methoxy)-2,3-dihydroimidazo[1′,2′:1,2]pyrido[4,3-d]pyrimidin-5-yl)-5-ethynyl-6-fluoronaphthalen-2-ol], the IC50 was determined as 56 nM.

In the case of `CCc1c(F)ccc2cc(O)cc(C3=C(F)c4nc(OC[C@@]56CCCN5C[C@H](F)C6)nc(N5C[C@H]6CC[C@@H](C5)N6)c4C4=NCCN43)c12` [Example 403, 4-(10-((1R,5S)-3,8-diazabicyclo[3.2.1]octan-3-yl)-6-fluoro-8-(((2R,7aS)-2-fluorotetrahydro-1H-pyrrolizin-7a(5H)-yl)methoxy)-2,3-dihydroimidazo[1′,2′:1,2]pyrido[4,3-d]pyrimidin-5-yl)-5-ethyl-6-fluoronaphthalen-2-ol], the IC50 was determined as 60 nM.
